Drawing on the supplement of paper PMC6045584, this text covers surviving fraction for 7 test systems.

± gives the standard deviation of the averaged measurements.

Compound in experiment [1]: COc1cc([C@@H]2c3cc4c(cc3[C@@H](O[C@@H]3O[C@@H]5CO[C@@H](C)O[C@H]5[C@H](O)[C@H]3O)[C@H]3COC(=O)[C@H]23)OCO4)cc(OC)c1O [ETOPOSIDE]
Briefly: surviving fraction relative to DMSO-only wells; higher = less growth inhibition. To be noted: exposure time: 5 days. The gist of the method:
(§1)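 Surviving fraction was calculated by normalising CellTiter-Glo luminescence to the median of DMSO-only wells. Tumour cell lines in log phase were seeded in 384-well plates at 250–500 cells per well, and 24 hours later were exposed continuously for five days to inhibitors at 0.5, 1, 5, 10, 50, 100, 500 and 1000 nM.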

Compound in experiment [2]: Cc1nc(Nc2n[nH]c3c2CN(C(=O)N[C@H](CN(C)C)c2ccccc2)C3(C)C)c2sccc2n1
The experiment is described as above. To be noted: exposure time: 5 days. The method in brief: as §1

SYO1 SYNOVIAL: the surviving fraction in experiment [1] (0.5 nM) turned out to be 0.994 ± 0.042; in experiment [1] (1 nM), 0.997 ± 0.059; in experiment [1] (5 nM), 0.975 ± 0.027; in experiment [1] (10 nM), 0.933 ± 0.023; in experiment [1] (50 nM), 0.7 ± 0.044; in experiment [1] (100 nM) it was 0.505 ± 0.051. The surviving fraction in experiment [1] (500 nM) came to 0.106 ± 0.024; in experiment [1] (1000 nM), 0.0784 ± 0.014; in experiment [2] (0.5 nM) it was 0.65 ± 0.017; in experiment [2] (1 nM) it was 0.486 ± 0.01; in experiment [2] (5 nM), 0.269 ± 0.023; in experiment [2] (10 nM) it was 0.214 ± 0.0035. The surviving fraction in experiment [2] (50 nM) came out at 0.166 ± 0.016; in experiment [2] (100 nM) it was 0.129 ± 0.013; in experiment [2] (500 nM), 0.0548 ± 0.0036; in experiment [2] (1000 nM), 0.0347 ± 0.0023.

Consider T47D BREAST, for which the surviving fraction in experiment [1] (0.5 nM) came to 1.06 ± 0.042; in experiment [1] (1 nM), 1.04 ± 0.03; in experiment [1] (5 nM), 1.07 ± 0.09; in experiment [1] (10 nM), 1.02 ± 0.021; in experiment [1] (50 nM), 1.03 ± 0.047; in experiment [1] (100 nM), 0.96 ± 0.068. Moreover, the surviving fraction amounted to 0.525 ± 0.036 in experiment [1] (500 nM); 0.46 ± 0.023 in experiment [1] (1000 nM); 1.16 ± 0.034 in experiment [2] (0.5 nM); 1.12 ± 0.025 in experiment [2] (1 nM); 0.845 ± 0.033 in experiment [2] (5 nM); 0.879 ± 0.023 in experiment [2] (10 nM). In addition, the surviving fraction was 0.887 ± 0.032 in experiment [2] (50 nM), 0.87 ± 0.014 in experiment [2] (100 nM), 0.776 ± 0.013 in experiment [2] (500 nM) and 0.528 ± 0.04 in experiment [2] (1000 nM).

Take U2OS BONE: the surviving fraction in experiment [1] (0.5 nM) came out at 1.03 ± 0.034; in experiment [1] (1 nM), 1.02 ± 0.062; in experiment [1] (5 nM), 1.05 ± 0.025; in experiment [1] (10 nM) it was 1.047 ± 0.009; in experiment [1] (50 nM), 1.022 ± 0.0045; in experiment [1] (100 nM), 0.867 ± 0.057. Also, the surviving fraction in experiment [1] (500 nM) turned out to be 0.56 ± 0.026; in experiment [1] (1000 nM) it was 0.546 ± 0.021; in experiment [2] (0.5 nM) it was 0.974 ± 0.038; in experiment [2] (1 nM), 0.901 ± 0.058; in experiment [2] (5 nM), 0.631 ± 0.016; in experiment [2] (10 nM), 0.453 ± 0.025. The surviving fraction was found to be 0.188 ± 0.025 in experiment [2] (50 nM), 0.142 ± 0.015 in experiment [2] (100 nM), 0.075 ± 0.0027 in experiment [2] (500 nM) and 0.0633 ± 0.0015 in experiment [2] (1000 nM).

Regarding VCAP PROSTATE, the surviving fraction in experiment [1] (0.5 nM) came to 1.19 ± 0.16; in experiment [1] (1 nM), 1.07 ± 0.032; in experiment [1] (5 nM), 1.14 ± 0.11; in experiment [1] (10 nM), 1.14 ± 0.088; in experiment [1] (50 nM), 1.07 ± 0.1; in experiment [1] (100 nM), 1.05 ± 0.092. Moreover, the surviving fraction was 0.541 ± 0.063 in experiment [1] (500 nM); 0.421 ± 0.049 in experiment [1] (1000 nM); 0.665 ± 0.11 in experiment [2] (0.5 nM); 0.496 ± 0.006 in experiment [2] (1 nM); 0.428 ± 0.025 in experiment [2] (5 nM); 0.398 ± 0.025 in experiment [2] (10 nM). The surviving fraction in experiment [2] (50 nM) was determined as 0.451 ± 0.084; in experiment [2] (100 nM), 0.397 ± 0.022; in experiment [2] (500 nM), 0.245 ± 0.036; in experiment [2] (1000 nM) it was 0.0417 ± 0.0063.

For the test system VP229 BREAST, the surviving fraction in experiment [1] (0.5 nM) turned out to be 1.11 ± 0.042; in experiment [1] (1 nM) it was 1.09 ± 0.16; in experiment [1] (5 nM), 1.14 ± 0.24; in experiment [1] (10 nM), 1.19 ± 0.075; in experiment [1] (50 nM), 1.17 ± 0.062; in experiment [1] (100 nM), 1.13 ± 0.064. Also, the surviving fraction in experiment [1] (500 nM) was determined as 1.18 ± 0.14; in experiment [1] (1000 nM) it was 1.15 ± 0.084; in experiment [2] (0.5 nM), 1.23 ± 0.085; in experiment [2] (1 nM), 1.15 ± 0.18; in experiment [2] (5 nM), 0.684 ± 0.099; in experiment [2] (10 nM), 0.597 ± 0.089. Further, the surviving fraction in experiment [2] (50 nM) is 0.484 ± 0.055; in experiment [2] (100 nM) it was 0.386 ± 0.036; in experiment [2] (500 nM) it was 0.301 ± 0.031; in experiment [2] (1000 nM) it was 0.311 ± 0.026.

In the case of YAMATO SYNOVIAL, the surviving fraction in experiment [1] (0.5 nM) amounted to 1.3 ± 0.12; in experiment [1] (1 nM), 1.32 ± 0.063; in experiment [1] (5 nM), 1.19 ± 0.051; in experiment [1] (10 nM), 1.22 ± 0.18; in experiment [1] (50 nM), 1.26 ± 0.018; in experiment [1] (100 nM) it was 1.11 ± 0.096. The surviving fraction in experiment [1] (500 nM) was 0.636 ± 0.014; in experiment [1] (1000 nM), 0.575 ± 0.031; in experiment [2] (0.5 nM) it was 0.784 ± 0.03; in experiment [2] (1 nM) it was 1.19 ± 0.074; in experiment [2] (5 nM), 0.432 ± 0.036; in experiment [2] (10 nM) it was 1.35 ± 0.091. Further, the surviving fraction turned out to be 0.354 ± 0.0056 in experiment [2] (50 nM), 1.42 ± 0.17 in experiment [2] (100 nM), 0.353 ± 0.024 in experiment [2] (500 nM) and 1.39 ± 0.074 in experiment [2] (1000 nM).

ZR751 BREAST: the surviving fraction in experiment [1] (0.5 nM) was determined as 1.1 ± 0.04; in experiment [1] (1 nM), 1.1 ± 0.048; in experiment [1] (5 nM) it was 1.02 ± 0.067; in experiment [1] (10 nM), 1.05 ± 0.076; in experiment [1] (50 nM), 0.996 ± 0.022; in experiment [1] (100 nM) it was 0.968 ± 0.089. Besides, the surviving fraction was determined as 0.901 ± 0.078 in experiment [1] (500 nM); 0.7397 ± 0.007 in experiment [1] (1000 nM); 0.872 ± 0.058 in experiment [2] (0.5 nM); 0.818 ± 0.052 in experiment [2] (1 nM); 0.575 ± 0.056 in experiment [2] (5 nM); 0.515 ± 0.0069 in experiment [2] (10 nM). Further, the surviving fraction in experiment [2] (50 nM) was 0.427 ± 0.029; in experiment [2] (100 nM), 0.463 ± 0.026; in experiment [2] (500 nM), 0.492 ± 0.041; in experiment [2] (1000 nM), 0.462 ± 0.037.
